Assay results: publication PMC3670040, “Structure of Lipid Kinase p110β/p85β Elucidates an Unusual SH2-Domain-Mediated Inhibitory Mechanism” (Molecular Cell, 2011)
Square brackets hold non-standard residues; d marks the D form. Ends that are not written are not given here. pY = N[C@@H](Cc1ccc(OP(=O)(O)O)cc1)C(=O)O

Tests used:
[1] = test system: p110β; assay: Transcreener ADP formation (fluorescence polarization), diC8-PIP2/POPS liposomes, mouse p110β complexes; format: biochemical; settings: ADP formation, 10 μM, Figure 1B
Method: Figure 1 Inhibition of p110β by p85-Type Regulatory Subunits and Activation of the Complexes by RTK Phosphopeptide (A) Domain organization of p110β and the regulatory subunits p85α, p85β, and p55γ. The color scheme for the domains is used for all figures, unless otherwise stated. […] The inhibition is released upon addition of the 10 μM PDGFR pY2. […] The y axis is expressed as a change in fluorescence polarization (ΔmP), which is obtained by subtracting the observed polarization for the construct at a given enzyme concentration from the maximum fluorescence polarization for that construct. The plateau in these assays arises due to the competitive nature of the ADP detection system, based on displacement of ADP-Alexa 633 tracer from the ADP^2-antibody by ADP generated during the PI3K assay (see Supplemental Experimental Procedures). All measurements were done in triplicates, and the error bars indicate the standard error of the mean (SEM). […]
Figure 3 Mutation Y677A in p85β-cSH2 Releases Inhibitory Effect on p110β (A) Kinase activity (ADP formation) of p110β in a complex with p85β-icSH2-Y677A (Y677A-ic) compared to the wild-type complex (ic) in the absence and presence of 10 μM PDGFR pY2 (ADP formation on the y axis expressed as in Figure 1B). […]
(§1) The lipid kinase activity was determined using the Transcreener ADP2 FP Assay (BellBrook Labs, Madison, WI) according to manufacturer‟s specifications. This non-radioactive assay measures activity by quantitating the amount of ADP formed. The ADP formed by PI3K competes with fluorescent ADP tracer for binding to an anti-ADP antibody, thereby decreasing fluorescence polarization. Because of the competitive nature of this assay, the change in fluorescence polarization signal is not a linear function of enzyme activity, and a convenient measure of enzyme activity is the EC50, or the concentration of enzyme necessary to give half-maximal inhibition of labeled ADP binding to the antibody, for a given concentration of substrate and a fixed time of reaction at initial rate. […]

[2] = test system: p110β/p85β complexes; assay: Transcreener ADP formation, soluble monomeric diC8-PIP2 substrate; format: biochemical, mouse; settings: p110β/p85-niSH2 and p110β/p85-icSH2 complexes
Method: Figure 1 Inhibition of p110β by p85-Type Regulatory Subunits and Activation of the Complexes by RTK Phosphopeptide (A) Domain organization of p110β and the regulatory subunits p85α, p85β, and p55γ. The color scheme for the domains is used for all figures, unless otherwise stated. […] The inhibition is released upon addition of the 10 μM PDGFR pY2. […] The y axis is expressed as a change in fluorescence polarization (ΔmP), which is obtained by subtracting the observed polarization for the construct at a given enzyme concentration from the maximum fluorescence polarization for that construct. […]
as §1

effect on kinase activity of complexes containing SH2 domains ([1]; nicSH2, niSH2, or icSH2 complexes): stimulates kinase activity
Substance: ESDGG[pY]MDMSKDESID[pY]VPMLDMKGDIKYADIE [pY2, bis-phosphopeptide (PDGFR 735–767, with pY740 and pY751)]
effect on activity of p110β/p85β-iSH2 or ΔABD-p110β [1]: did not affect the activity
activity with soluble lipid substrate in the presence of pY2 [2]: enhanced
